Drawing on BindingDB's records for doi:10.1016/j.bmcl.2007.11.060 (Amgen, 2008), this text covers IC50 for 5 compounds.

Structures are written as SMILES.

The assay is described as follows: Antagonist activity at CXCR3 assessed as ITAC-mediated migration of human PBMC in presence of 100% human plasma.
The term IC50 denotes the concentration at which inhibition is half-maximal. As for `CCS(=O)(=O)CCN(C(=O)Cc1ccc(F)c(C(F)(F)F)c1)[C@H](C)c1nc2ccccc2n1-c1ccc(C#N)cc1` [(R)-N-(1-(1-(4-cyanophenyl)-1H-benzo[d]imidazol-2-yl)ethyl)-N-(2-(ethylsulfonyl)ethyl)-2-(4-fluoro-3-(trifluoromethyl)phenyl)acetamide], the IC50 was 521 nM.

For the compound `CCS(=O)(=O)CCN(C(=O)Cc1ccc(F)c(C(F)(F)F)c1)[C@H](C)c1nc2ncccc2cc1-c1ccc(C#N)cc1` [(R)-N-(1-(3-(4-cyanophenyl)-1,8-naphthyridin-2-yl)ethyl)-N-(2-(ethylsulfonyl)ethyl)-2-(4-fluoro-3-(trifluoromethyl)phenyl)acetamide], the IC50 is 48 nM.

`CCS(=O)(=O)CCN(C(=O)Cc1ccc(F)c(C(F)(F)F)c1)[C@H](C)c1nc2c(c(=O)n1-c1ccc(C#N)cc1)CCCN2C` [(R)-N-(1-(3-(4-cyanophenyl)-8-methyl-4-oxo-3,4,5,6,7,8-hexahydropyrido[2,3-d]pyrimidin-2-yl)ethyl)-N-(2-(ethylsulfonyl)ethyl)-2-(4-fluoro-3-(trifluoromethyl)phenyl)acetamide]: the IC50 worked out at 88 nM.

Take `CCS(=O)(=O)CCN(C(=O)Cc1ccc(F)c(C(F)(F)F)c1)[C@H](C)c1nc2ccccn2c1-c1ccc(C#N)cc1` [(R)-N-(1-(3-(4-cyanophenyl)H-imidazo[1,2-a]pyridin-2-yl)ethyl)-N-(2-(ethylsulfonyl)ethyl)-2-(4-fluoro-3-(trifluoromethyl)phenyl)acetamide]: the half-inhibitory concentration (IC50) came to 72 nM.

`CCS(=O)(=O)CCN(C(=O)Cc1ccc(F)c(C(F)(F)F)c1)[C@H](C)c1nc2ccccc2cc1-c1ccc(C#N)cc1` [(R)-N-(1-(3-(4-cyanophenyl)quinolin-2-yl)ethyl)-N-(2-(ethylsulfonyl)ethyl)-2-(4-fluoro-3-(trifluoromethyl)phenyl)acetamide]: the 50% inhibitory concentration (IC50) turned out to be 72 nM.
